Measurements published in patent publication US12410208B2, “(2-acetamidyl)thio-beta-D-galactopyranoside derivatives” (Idorsia Pharmaceuticals Ltd, priority 2020, dated 2025).
pIC50: −log10 of the molar value. Read-outs that look alike come from different tables or passages of the source.

Legend:
[1] = target: biotinylated human Gal-3 (hGal-3) (Homo sapiens, UniProt P17931); assay: Competitive binding assay: biotinylated hGal-3 binding to microplate-adsorbed asialofetuin (ASF), spectrophotometric; conditions: Gal-3 inhibition, read-out: IC50
Sequence of biotinylated human Gal-3 (hGal-3) (P17931 whole entry): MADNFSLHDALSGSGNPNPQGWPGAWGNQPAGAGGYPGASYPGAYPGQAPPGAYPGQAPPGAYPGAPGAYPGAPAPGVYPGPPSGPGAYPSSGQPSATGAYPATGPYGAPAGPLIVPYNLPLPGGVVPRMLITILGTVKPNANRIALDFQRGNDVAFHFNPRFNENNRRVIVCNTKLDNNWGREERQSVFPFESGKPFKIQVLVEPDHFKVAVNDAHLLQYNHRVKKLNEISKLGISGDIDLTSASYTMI
In short: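 Serially diluted compounds competed with asialofetuin on the plate for biotinylated human Gal-3 during a 3 h incubation at 4° C. Streptavidin-peroxidase with ABTS gave the spectrophotometric signal. IC50 values were averaged over repeat runs.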

human Gal-1 (hGal-1) = human Gal-1 (hGal-1) (Homo sapiens, UniProt P09382); assay: Competitive binding assay: biotinylated hGal-1 binding to microplate-adsorbed asialofetuin (ASF), spectrophotometric; conditions: hGal-1 binding to asialofetuin; Table 15; R and S epimers of selected Examples also listed; read-out: IC50 (Galectin-1 inhibition)
Sequence of human Gal-1 (hGal-1) (P09382 whole entry): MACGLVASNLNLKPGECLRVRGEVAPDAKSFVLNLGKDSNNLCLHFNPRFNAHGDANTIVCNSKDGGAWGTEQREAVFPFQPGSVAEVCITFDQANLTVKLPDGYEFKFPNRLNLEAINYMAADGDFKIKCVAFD
In short: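 Spectrophotometric competition readout with ABTS after streptavidin-peroxidase (80 ng/mL, 1 h, 4 °C) detection of bound biotinylated hGal-1.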

Structure (SMILES) | pIC50 ([1]; Table 4) | pIC50 (human Gal-1 (hGal-1)) | pIC50 ([1]; Table 5)
CN(C)C(=O)[C@H](S[C@@H]1O[C@H](CO)[C@H](O)[C@H](n2cc(-c3cc(F)c(F)c(F)c3)nn2)[C@H]1O)C1(O)CCOCC1 [Example 2.41.201R., (R)-2-(((2S,3R,4S,5R,6R)-3,5-Dihydroxy-6-(hydroxymethyl)-4-(4-(3,4,5-trifluorophenyl)-1H-1,2,3-triazol-1-yl)tetrahydro-2H-pyran-2-yl)thio)-2-(4-hydroxytetrahydro-2H-pyran-4-yl)-N,N-dimethylacetamide] | 5.39 | < 4.00 | 
CN(C)C(=O)[C@@H](S[C@@H]1O[C@H](CO)[C@H](O)[C@H](n2cc(-c3cc(F)c(F)c(F)c3)nn2)[C@H]1O)C1(O)CCOCC1 [Example 2.41.201S., (S)-2-(((2S,3R,4S,5R,6R)-3,5-Dihydroxy-6-(hydroxymethyl)-4-(4-(3,4,5-trifluorophenyl)-1H-1,2,3-triazol-1-yl)tetrahydro-2H-pyran-2-yl)thio)-2-(4-hydroxytetrahydro-2H-pyran-4-yl)-N,N-dimethylacetamide] | 7.22 | 6.68 | 
CCN(CC)C(=O)C(S[C@@H]1O[C@H](CO)[C@H](O)[C@H](n2cc(-c3cc(F)c(F)c(F)c3)nn2)[C@H]1O)C1(O)CCOCC1 (stereo partly drawn) [Example 2.41.202., 2-(((2S,3R,4S,5R,6R)-3,5-Dihydroxy-6-(hydroxymethyl)-4-(4-(3,4,5-trifluorophenyl)-1H-1,2,3-triazol-1-yl)tetrahydro-2H-pyran-2-yl)thio)-N,N-diethyl-2-(4-hydroxytetrahydro-2H-pyran-4-yl)acetamide] | 7.30 | 6.96 | 
CCN(C)C(=O)C(S[C@@H]1O[C@H](CO)[C@H](O)[C@H](n2cc(-c3cc(F)c(F)c(F)c3)nn2)[C@H]1O)C1(O)CCOCC1 (stereo partly drawn) [Example 2.41.203., 2-(((2S,3R,4S,5R,6R)-3,5-Dihydroxy-6-(hydroxymethyl)-4-(4-(3,4,5-trifluorophenyl)-1H-1,2,3-triazol-1-yl)tetrahydro-2H-pyran-2-yl)thio)-N-ethyl-2-(4-hydroxytetrahydro-2H-pyran-4-yl)-N-methylacetamide] |  | 6.38 | 7.05
CCN(C)C(=O)[C@H](S[C@@H]1O[C@H](CO)[C@H](O)[C@H](n2cc(-c3cc(F)c(F)c(F)c3)nn2)[C@H]1O)C1(O)CCOCC1 [Example 2.41.203R., (R)-2-(((2S,3R,4S,5R,6R)-3,5-Dihydroxy-6-(hydroxymethyl)-4-(4-(3,4,5-trifluorophenyl)-1H-1,2,3-triazol-1-yl)tetrahydro-2H-pyran-2-yl)thio)-N-ethyl-2-(4-hydroxytetrahydro-2H-pyran-4-yl)-N-methylacetamide] |  | < 4.40 | 5.35
CCN(C)C(=O)[C@@H](S[C@@H]1O[C@H](CO)[C@H](O)[C@H](n2cc(-c3cc(F)c(F)c(F)c3)nn2)[C@H]1O)C1(O)CCOCC1 [Example 2.41.203S., (S)-2-(((2S,3R,4S,5R,6R)-3,5-Dihydroxy-6-(hydroxymethyl)-4-(4-(3,4,5-trifluorophenyl)-1H-1,2,3-triazol-1-yl)tetrahydro-2H-pyran-2-yl)thio)-N-ethyl-2-(4-hydroxytetrahydro-2H-pyran-4-yl)-N-methylacetamide] |  | 7.17 | 7.52
CC1CCN1C(=O)C(S[C@@H]1O[C@H](CO)[C@H](O)[C@H](n2cc(-c3cc(F)c(F)c(F)c3)nn2)[C@H]1O)C1(O)CCOCC1 (stereo partly drawn) [Example 2.41.204., 2-(((2S,3R,4S,5R,6R)-3,5-Dihydroxy-6-(hydroxymethyl)-4-(4-(3,4,5-trifluorophenyl)-1H-1,2,3-triazol-1-yl)tetrahydro-2H-pyran-2-yl)thio)-2-(4-hydroxytetrahydro-2H-pyran-4-yl)-1-(2-methylazetidin-1-yl)ethan-1-one] | 6.68 | 6.02 | 
CC1CN(C(=O)[C@H](S[C@@H]2O[C@H](CO)[C@H](O)[C@H](n3cc(-c4cc(F)c(F)c(F)c4)nn3)[C@H]2O)C2(O)CCOCC2)C1 [Example 2.41.205R., (R)-2-(((2S,3R,4S,5R,6R)-3,5-Dihydroxy-6-(hydroxymethyl)-4-(4-(3,4,5-trifluorophenyl)-1H-1,2,3-triazol-1-yl)tetrahydro-2H-pyran-2-yl)thio)-2-(4-hydroxytetrahydro-2H-pyran-4-yl)-1-(3-methylazetidin-1-yl)ethan-1-one] | 6.00 | 5.31 | 
CC1CN(C(=O)[C@@H](S[C@@H]2O[C@H](CO)[C@H](O)[C@H](n3cc(-c4cc(F)c(F)c(F)c4)nn3)[C@H]2O)C2(O)CCOCC2)C1 [Example 2.41.205S., (S)-2-(((2S,3R,4S,5R,6R)-3,5-Dihydroxy-6-(hydroxymethyl)-4-(4-(3,4,5-trifluorophenyl)-1H-1,2,3-triazol-1-yl)tetrahydro-2H-pyran-2-yl)thio)-2-(4-hydroxytetrahydro-2H-pyran-4-yl)-1-(3-methylazetidin-1-yl)ethan-1-one] | 6.92 | 6.26 | 
O=C(C(S[C@@H]1O[C@H](CO)[C@H](O)[C@H](n2cc(-c3cc(F)c(F)c(F)c3)nn2)[C@H]1O)C1(O)CCOCC1)N1CCC1 (stereo partly drawn) [Example 2.41.206., 1-(Azetidin-1-yl)-2-(((2S,3R,4S,5R,6R)-3,5-dihydroxy-6-(hydroxymethyl)-4-(4-(3,4,5-trifluorophenyl)-1H-1,2,3-triazol-1-yl)tetrahydro-2H-pyran-2-yl)thio)-2-(4-hydroxytetrahydro-2H-pyran-4-yl)ethan-1-one] | 6.59 | 5.82 | 
CN(Cc1ccccc1)C(=O)C(S[C@@H]1O[C@H](CO)[C@H](O)[C@H](n2cc(-c3cc(F)c(F)c(F)c3)nn2)[C@H]1O)C1(O)CCOCC1 (stereo partly drawn) [Example 2.41.207., N-Benzyl-2-(((2S,3R,4S,5R,6R)-3,5-dihydroxy-6-(hydroxymethyl)-4-(4-(3,4,5-trifluorophenyl)-1H-1,2,3-triazol-1-yl)tetrahydro-2H-pyran-2-yl)thio)-2-(4-hydroxytetrahydro-2H-pyran-4-yl)-N-methylacetamide] | 7.15 | 7.14 | 
CN(Cc1ccccc1)C(=O)[C@H](S[C@@H]1O[C@H](CO)[C@H](O)[C@H](n2cc(-c3cc(F)c(F)c(F)c3)nn2)[C@H]1O)C1(O)CCOCC1 [Example 2.41.207R., (R)-N-Benzyl-2-(((2S,3R,4S,5R,6R)-3,5-dihydroxy-6-(hydroxymethyl)-4-(4-(3,4,5-trifluorophenyl)-1H-1,2,3-triazol-1-yl)tetrahydro-2H-pyran-2-yl)thio)-2-(4-hydroxytetrahydro-2H-pyran-4-yl)-N-methylacetamide] | 5.08 | 4.29 | 
O=C(C(S[C@@H]1O[C@H](CO)[C@H](O)[C@H](n2cc(-c3cc(F)c(F)c(F)c3)nn2)[C@H]1O)C1(O)CCOCC1)N1CCCCC1 (stereo partly drawn) [Example 2.41.208., 2-(((2S,3R,4S,5R,6R)-3,5-Dihydroxy-6-(hydroxymethyl)-4-(4-(3,4,5-trifluorophenyl)-1H-1,2,3-triazol-1-yl)tetrahydro-2H-pyran-2-yl)thio)-2-(4-hydroxytetrahydro-2H-pyran-4-yl)-1-(piperidin-1-yl)ethan-1-one] | 7.05 | 6.66 | 
O=C([C@H](S[C@@H]1O[C@H](CO)[C@H](O)[C@H](n2cc(-c3cc(F)c(F)c(F)c3)nn2)[C@H]1O)C1(O)CCOCC1)N1CCCCC1 [Example 2.41.208R., (R)-2-(((2S,3R,4S,5R,6R)-3,5-Dihydroxy-6-(hydroxymethyl)-4-(4-(3,4,5-trifluorophenyl)-1H-1,2,3-triazol-1-yl)tetrahydro-2H-pyran-2-yl)thio)-2-(4-hydroxytetrahydro-2H-pyran-4-yl)-1-(piperidin-1-yl)ethan-1-one] | 5.78 | 4.49 | 
O=C([C@@H](S[C@@H]1O[C@H](CO)[C@H](O)[C@H](n2cc(-c3cc(F)c(F)c(F)c3)nn2)[C@H]1O)C1(O)CCOCC1)N1CCCCC1 [Example 2.41.208S., (S)-2-(((2S,3R,4S,5R,6R)-3,5-Dihydroxy-6-(hydroxymethyl)-4-(4-(3,4,5-trifluorophenyl)-1H-1,2,3-triazol-1-yl)tetrahydro-2H-pyran-2-yl)thio)-2-(4-hydroxytetrahydro-2H-pyran-4-yl)-1-(piperidin-1-yl)ethan-1-one] | 7.70 | 6.10 | 
O=C(C(S[C@@H]1O[C@H](CO)[C@H](O)[C@H](n2cc(-c3cc(F)c(F)c(F)c3)nn2)[C@H]1O)C1(O)CCOCC1)N1CCc2ccccc21 (stereo partly drawn) [Example 2.41.209., 2-(((2S,3R,4S,5R,6R)-3,5-Dihydroxy-6-(hydroxymethyl)-4-(4-(3,4,5-trifluorophenyl)-1H-1,2,3-triazol-1-yl)tetrahydro-2H-pyran-2-yl)thio)-2-(4-hydroxytetrahydro-2H-pyran-4-yl)-1-(indolin-1-yl)ethan-1-one] | 6.82 | 6.51 | 
O=C([C@@H](S[C@@H]1O[C@H](CO)[C@H](O)[C@H](n2cc(-c3cc(F)c(F)c(F)c3)nn2)[C@H]1O)C1(O)CCOCC1)N1CCc2ccccc21 [Example 2.41.209S., (S)-2-(((2S,3R,4S,5R,6R)-3,5-Dihydroxy-6-(hydroxymethyl)-4-(4-(3,4,5-trifluorophenyl)-1H-1,2,3-triazol-1-yl)tetrahydro-2H-pyran-2-yl)thio)-2-(4-hydroxytetrahydro-2H-pyran-4-yl)-1-(indolin-1-yl)ethan-1-one] | 7.00 | 6.77 | 
CN(Cc1cccs1)C(=O)C(S[C@@H]1O[C@H](CO)[C@H](O)[C@H](n2cc(-c3cc(F)c(F)c(F)c3)nn2)[C@H]1O)C1(O)CCOCC1 (stereo partly drawn) [Example 2.41.210., 2-(((2S,3R,4S,5R,6R)-3,5-dihydroxy-6-(hydroxymethyl)-4-(4-(3,4,5-trifluorophenyl)-1H-1,2,3-triazol-1-yl)tetrahydro-2H-pyran-2-yl)thio)-2-(4-hydroxytetrahydro-2H-pyran-4-yl)-N-methyl-N-(thiophen-2-ylmethyl)acetamide] | 6.36 | 5.95 | 
